Experimental data published in the supplement of paper PMC10307832.

How the values were obtained:
Assay in all cases: relative viability (nuclei count vs DMSO), 5 days (fraction); higher = more cells survive
RERF-LC-KJ = tested on: RERF-LC-KJ
In short: (§1)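 Relative viability is defined as nuclei in treated wells over nuclei in vehicle wells. Duplicate plates were run and medians reported. Lung cancer cell lines in 1536-well plates were dosed by pin tool one day after seeding, with one drug or with a fixed anchor-drug dose plus five library-drug doses (not always all listed) in √10 steps, and nuclei were counted after 5 days.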

H3255 = tested on: H3255
In short: as §1

HCC-827 = tested on: HCC-827
In short: as §1

NCI-H2228 = tested on: NCI-H2228
In short: as §1

EKVX = tested on: EKVX
In short: as §1

NCI-H2405 = tested on: NCI-H2405
In short: as §1

HCC-15 = tested on: HCC-15
In short: as §1

NCI-H1734 = tested on: NCI-H1734
In short: as §1

NCI-H1975 = tested on: NCI-H1975
In short: as §1

NCI-H1755 = tested on: NCI-H1755
In short: as §1

PC-14 = tested on: PC-14
In short: as §1

NCI-H661 = tested on: NCI-H661
In short: as §1

NCI-H1355 = tested on: NCI-H1355
In short: as §1

CAL-12T = tested on: CAL-12T
In short: as §1

NCI-H322M = tested on: NCI-H322M
In short: as §1

NCI-H1650 = tested on: NCI-H1650
In short: as §1

LCLC-97TM1 = tested on: LCLC-97TM1
In short: as §1

NCI-H520 = tested on: NCI-H520
In short: as §1

LK-2 = tested on: LK-2
In short: as §1

PC-3 [JPC-3] = tested on: PC-3 [JPC-3]
In short: as §1

NCI-H1563 = tested on: NCI-H1563
In short: as §1

Work on `O=c1cc(-c2cccc3c2Sc2ccccc2S3)oc(N2CCOCC2)c1` + CS(=O)(=O)N1CCN(Cc2cc3nc(-c4cccc5[nH]ncc45)nc(N4CCOCC4)c3s2)CC1 [Pictilisib] (partner 1 µM) yielded a relative viability (RERF-LC-KJ; first compound 0.08 µM) of 0.43, a relative viability (RERF-LC-KJ; first compound 0.253 µM) of 0.608 and a relative viability (RERF-LC-KJ; first compound 0.8 µM) of 0.622. It also gave a relative viability (RERF-LC-KJ; first compound 2.53 µM) of 0.571, a relative viability (RERF-LC-KJ; first compound 8 µM) of 0.521 and a relative viability (H3255; first compound 0.08 µM) of 0.408. It also gave a relative viability (H3255; first compound 0.253 µM) of 0.463, a relative viability (H3255; first compound 0.8 µM) of 0.427 and a relative viability (H3255; first compound 2.53 µM) of 0.402. For the same compound, the relative viability (H3255; first compound 8 µM) was 0.513, the relative viability (HCC-827; first compound 0.08 µM) was 0.945 and the relative viability (HCC-827; first compound 0.253 µM) was 1.13. It also gave a relative viability (HCC-827; first compound 0.8 µM) of 1.12, a relative viability (HCC-827; first compound 2.53 µM) of 0.743 and a relative viability (HCC-827; first compound 8 µM) of 1.1. The relative viability (NCI-H2228; first compound 0.08 µM) was 0.434, the relative viability (NCI-H2228; first compound 0.253 µM) was 0.424 and the relative viability (NCI-H2228; first compound 0.8 µM) was 0.296. For the same compound, the relative viability (NCI-H2228; first compound 2.53 µM) was 0.484, the relative viability (NCI-H2228; first compound 8 µM) was 0.378 and the relative viability (EKVX; first compound 0.08 µM) was 0.418. It also gave a relative viability (EKVX; first compound 0.253 µM) of 0.521, a relative viability (EKVX; first compound 0.8 µM) of 0.286 and a relative viability (EKVX; first compound 2.53 µM) of 0.439. The relative viability (EKVX; first compound 8 µM) was 0.47, the relative viability (NCI-H2405; first compound 0.08 µM) was 0.454 and the relative viability (NCI-H2405; first compound 0.253 µM) was 0.386. The relative viability (NCI-H2405; first compound 0.8 µM) was 0.333, the relative viability (NCI-H2405; first compound 2.53 µM) was 0.491 and the relative viability (NCI-H2405; first compound 8 µM) was 0.492. For the same compound, the relative viability (HCC-15; first compound 0.08 µM) was 0.732, the relative viability (HCC-15; first compound 0.253 µM) was 0.858 and the relative viability (HCC-15; first compound 0.8 µM) was 0.797. For the same compound, the relative viability (HCC-15; first compound 2.53 µM) was 0.674, the relative viability (HCC-15; first compound 8 µM) was 0.793 and the relative viability (NCI-H1734; first compound 0.08 µM) was 0.443. For the same compound, the relative viability (NCI-H1734; first compound 0.253 µM) was 0.564, the relative viability (NCI-H1734; first compound 0.8 µM) was 0.465 and the relative viability (NCI-H1734; first compound 2.53 µM) was 0.351. For the same compound, the relative viability (NCI-H1734; first compound 8 µM) was 0.578, the relative viability (NCI-H1975; first compound 0.08 µM) was 0.276 and the relative viability (NCI-H1975; first compound 0.253 µM) was 0.311. For the same compound, the relative viability (NCI-H1975; first compound 0.8 µM) was 0.236, the relative viability (NCI-H1975; first compound 2.53 µM) was 0.272 and the relative viability (NCI-H1975; first compound 8 µM) was 0.269. It also gave a relative viability (NCI-H1755; first compound 0.08 µM) of 0.369, a relative viability (NCI-H1755; first compound 0.253 µM) of 0.489 and a relative viability (NCI-H1755; first compound 0.8 µM) of 0.481. For the same compound, the relative viability (NCI-H1755; first compound 2.53 µM) was 0.431, the relative viability (NCI-H1755; first compound 8 µM) was 0.444 and the relative viability (PC-14; first compound 0.08 µM) was 0.48. It also gave a relative viability (PC-14; first compound 0.253 µM) of 0.977, a relative viability (PC-14; first compound 0.8 µM) of 0.755 and a relative viability (PC-14; first compound 2.53 µM) of 0.748. It also gave a relative viability (PC-14; first compound 8 µM) of 0.668, a relative viability (NCI-H661; first compound 0.08 µM) of 0.352 and a relative viability (NCI-H661; first compound 0.253 µM) of 0.394. It also gave a relative viability (NCI-H661; first compound 0.8 µM) of 0.404, a relative viability (NCI-H661; first compound 2.53 µM) of 0.35 and a relative viability (NCI-H661; first compound 8 µM) of 0.446. The relative viability (NCI-H1355; first compound 0.08 µM) was 0.457, the relative viability (NCI-H1355; first compound 0.253 µM) was 0.456 and the relative viability (NCI-H1355; first compound 0.8 µM) was 0.362. The relative viability (NCI-H1355; first compound 2.53 µM) was 0.405, the relative viability (NCI-H1355; first compound 8 µM) was 0.344 and the relative viability (CAL-12T; first compound 0.08 µM) was 0.31. For the same compound, the relative viability (CAL-12T; first compound 0.253 µM) was 0.482, the relative viability (CAL-12T; first compound 0.8 µM) was 0.418 and the relative viability (CAL-12T; first compound 2.53 µM) was 0.32. For the same compound, the relative viability (CAL-12T; first compound 8 µM) was 0.397, the relative viability (NCI-H322M; first compound 0.08 µM) was 0.512 and the relative viability (NCI-H322M; first compound 0.253 µM) was 0.553. The relative viability (NCI-H322M; first compound 0.8 µM) was 0.419, the relative viability (NCI-H322M; first compound 2.53 µM) was 0.585 and the relative viability (NCI-H322M; first compound 8 µM) was 0.471. For the same compound, the relative viability (NCI-H1650; first compound 0.08 µM) was 0.509, the relative viability (NCI-H1650; first compound 0.253 µM) was 0.53 and the relative viability (NCI-H1650; first compound 0.8 µM) was 0.507. The relative viability (NCI-H1650; first compound 2.53 µM) was 0.522, the relative viability (NCI-H1650; first compound 8 µM) was 0.582 and the relative viability (LCLC-97TM1; first compound 0.08 µM) was 0.166. It also gave a relative viability (LCLC-97TM1; first compound 0.253 µM) of 0.174, a relative viability (LCLC-97TM1; first compound 0.8 µM) of 0.208 and a relative viability (LCLC-97TM1; first compound 2.53 µM) of 0.158. For the same compound, the relative viability (LCLC-97TM1; first compound 8 µM) was 0.184, the relative viability (NCI-H520; first compound 0.08 µM) was 0.308 and the relative viability (NCI-H520; first compound 0.253 µM) was 0.354. The relative viability (NCI-H520; first compound 0.8 µM) was 0.306, the relative viability (NCI-H520; first compound 2.53 µM) was 0.273 and the relative viability (NCI-H520; first compound 8 µM) was 0.374. For the same compound, the relative viability (LK-2; first compound 0.08 µM) was 0.608, the relative viability (LK-2; first compound 0.253 µM) was 0.51 and the relative viability (LK-2; first compound 0.8 µM) was 0.708. The relative viability (LK-2; first compound 2.53 µM) was 0.503, the relative viability (LK-2; first compound 8 µM) was 0.725 and the relative viability (PC-3 [JPC-3]; first compound 0.08 µM) was 0.694. For the same compound, the relative viability (PC-3 [JPC-3]; first compound 0.253 µM) was 0.761, the relative viability (PC-3 [JPC-3]; first compound 0.8 µM) was 0.644 and the relative viability (PC-3 [JPC-3]; first compound 2.53 µM) was 0.662. The relative viability (PC-3 [JPC-3]; first compound 8 µM) was 0.863, the relative viability (NCI-H1563; first compound 0.08 µM) was 0.649 and the relative viability (NCI-H1563; first compound 0.253 µM) was 0.64. It also gave a relative viability (NCI-H1563; first compound 0.8 µM) of 0.633, a relative viability (NCI-H1563; first compound 2.53 µM) of 0.738 and a relative viability (NCI-H1563; first compound 8 µM) of 0.661.
